Values joined by “and” are separate entries in the source; they are usually repeats but may differ in a detail not shown here. Equal entries are not always repeated. Active and inactive are the calls of the source. How the calls were made is not given here.
Each compound was assayed on S. cerevisiae expressing PfHSP40, growth rescue, plate reader (assay: Yeast growth rescue from Plasmodium falciparum HSP40 toxicity, dose response confirmatory, plate reader (AID 540271);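 further: yeast growth read after three days of incubation at 30 °C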).

| SMILES | AC50 |
| --- | --- |
| Cc1ccc(C(C[N+](=O)[O-])c2c(N)n(C)c(=O)n(C)c2=O)cc1 (stereo not given) | 6.03 µM |
| CCCC1CCC(c2ccc(/C(N)=N/O)cc2)CC1 (stereo not given) | > 12 µM (inactive) |
| Cc1nc2c(o1)C(=O)c1ccccc1C2=Nc1ccccc1 | 5.02 µM |
| CC(C)(C)n1nc(-c2ccc(Cl)cc2)c2c(N)ncnc21 | 1.56 µM |
| CN(C)c1ccc(C=c2c3ccccc3n3c2c2c([n+]3C)CCCC2)cc1 | 2.64 µM |
| Cc1ccc(C(=O)Sc2cccccc2=O)cc1 | 0.295 µM |
| Cc1ccc(COc2ccc(Br)cc2/C=N/O)cc1 | 7.92 µM |
| O=C(CSc1ccc(-c2ccccn2)nn1)NCc1ccc(F)cc1 | 4.86 µM |
| CCCCCOc1ccc(CSc2n[nH]c(C)n2)cc1 | 3.81 µM |
| CC[C@@H](C(=O)[C@@H](C)[C@@H](O)[C@H](C)[C@@H]1O[C@@H]([C@@H](CC)C(=O)O)CC[C@@H]1C)[C@H]1O[C@]2(C=C[C@@H](O)[C@]3(CC[C@@](C)([C@H]4CC[C@](O)(CC)[C@H](C)O4)O3)O2)[C@H](C)C[C@@H]1C | 3 µM |
| Oc1ccc(Cl)cc1CNc1cccc2cccnc12 | 6.73 µM |
| CC(=O)Nc1ccc2c(c1)Cc1cc(N3C(=O)C=CC3=O)ccc1-2 | 0.526 µM |
| CN(C(=O)COC(=O)c1ccc([N+](=O)[O-])cc1Cl)C1CCCCC1 | 9.99 µM |
| Cc1ccc(Sc2ccc(NC(=O)CCl)cc2)cc1C | 4.54 µM |
| CCOC(=O)c1ccc(-c2ccc(C3Nc4ccccc4C(=O)N3O)o2)cc1 (stereo not given) | 3.91 µM |
| CCOC(=O)c1c2c(n(-c3ccc(OC)cc3)c1C)C(=O)C(=O)c1ccccc1-2 | 3.97 µM |
| Cc1ccc(C)c(S(=O)(=O)N2CCN(Cc3ccc(O)c4ncccc34)CC2)c1 | 5.23 µM |
| CC1CC(C)CC(C)C(O)C(C#N)=CC=CCC(C2CCCC2C(=O)O)OC(=O)CC(O)C(C)C1 (stereo not given) | 5.14 µM |
| Cc1cccc(NC(=S)NC(C)CCc2ccccc2)c1 (stereo not given) | 7.92 µM |
| CC(C)(C)n1nc(-c2ccc(F)cc2)c2c(N)ncnc21 | 1.47 µM |
| O=[N+]([O-])c1cc2oc3c(c2c(C=NCc2ccccc2)c1O)CCCC3 | 0.986 µM |
| O=c1cnn([C@@H]2O[C@H](CO)[C@@H](O)[C@H]2O)c(=O)[nH]1 | > 12 µM (inactive) |
| COc1ccc(N=N/C(=C\O)C(=O)c2cccs2)cc1 | 7.25 µM |

| SMILES | AC50 |
| --- | --- |
| Cc1nnc(N=c2ssnc2Cl)o1 | 3.22 µM |
| O=C(Nc1nnc(-c2cccs2)o1)c1cccc(Oc2ccccc2)c1 | 2.57 µM |
| CC1=NN(C(N)=S)C(=O)C1N=Nc1cccc(Cl)c1C (stereo not given) | 3.3 µM |
| Cc1ccc(S(=O)(=O)N(C(=O)c2ccncc2)c2ccc(OC(=O)c3ccncc3)cc2)cc1 | 1.83 µM |
| CCCCNc1c(-c2cccc(Sc3ccc(OC)cc3)c2)nc2ccccn12 | 8.12 µM |
| Nc1cc2nc3ccccc3oc-2cc1=O | 1.52 µM |
| Cc1cc(Nc2ccccc2)nn1C(=O)c1ccccc1 | 5.94 µM |
| Cc1cccc(C)c1N1C(=O)C2ON(c3ccccc3)C(c3ccncc3)C2C1=O (stereo not given) | 6.34 µM |
| c1ccc(CSc2ccc(-c3ccccn3)nn2)nc1 | 4.49 µM |
| CCc1cc(C(N)=O)c(NC(=O)c2ccc(OC)cc2)s1 | 1.77 µM |
| COc1ccc(-c2csc(NC(=O)c3ccccc3F)c2C(=O)O)cc1 | 3.69 µM |
| O=C(Cc1ccccc1F)Nc1nc(-c2ccc(F)c(F)c2)cs1 | 6.72 µM |
| C=CCn1c(-c2cc(-c3ccc(C)cc3)nc3ccccc23)n[nH]c1=S | 5.81 µM |
| Cc1cc(/C=N/n2cnnc2)c(C)n1-c1ccc(OCc2ccc(F)cc2)cc1 | 4.69 µM |
| O=C(c1ccc(-c2ccccc2)c(F)c1)C1CCCN(C(=O)c2cncs2)C1 (stereo not given) | 5.68 µM |
| O=c1cc(CSc2ccc(Cl)cc2)nc(-c2ccccn2)[nH]1 | 4.13 µM |
| CC(C)=CCc1c(O)ccc(C(=O)Cc2ccccc2)c1O | 10.8 µM |
| CC(=O)NC(c1cccc([N+](=O)[O-])c1)c1ccc2cccnc2c1O (stereo not given) | 3.95 µM |
| Cc1n[nH]c(C)c1N=Nc1ccc(Br)cc1 | 6.88 µM |
| O=C(O)CSc1nc(-c2ccc(Cl)cc2)nc2c1oc1ccccc12 | 6.02 µM |
| O=C(OCC(=O)C12CC3CC(CC(C3)C1)C2)c1ccc(O)cc1 | 1.69 µM |
| O=C(Sc1cccc2cccnc12)c1ccccc1Br | 6.63 µM |
| CC1(C(=O)OCC(=O)Nc2ccc3ccccc3c2)CC1(Cl)Cl (stereo not given) | 9.6 µM |

| SMILES | AC50 |
| --- | --- |
| CCCCCCn1c(=O)c(C(=O)Nc2ncccc2C)c(O)c2ccccc21 | 3.03 µM |
| N/C(Cc1ccc(Cl)cc1Cl)=N\OC(=O)c1ccccc1F | 5.93 µM |
| c1ccc(C(=NNc2nc3ccccc3s2)c2ccccn2)cc1 | 2.52 µM |
| Cc1ccc(NC(=S)c2nc3ccccc3[nH]2)c(C)c1 | 6.15 µM |
| CCOC(=O)c1ccc(NC(=S)N(Cc2cccnc2)Cc2ccco2)cc1 | 6.54 µM |
| Cc1ccc(NC(=S)Nc2cccc3cnccc23)cc1C | > 12 µM (inactive) |
| O=C1Nc2c(Br)cccc2C1=O | 11.6 µM |
| Cc1ccc(-n2nnnc2SCC(=O)N2CCc3ccccc3C2)c(C)c1 | 5.8 µM |
| CCCCNc1c(-c2cccc(-c3ccc(OC)cc3)c2)nc2ccc(C)cn12 | 5.67 µM |
| Cc1ccc(Nc2cc(C)nn2-c2nc(C)cc(C)n2)cc1 | 3.95 µM |
| FC(F)(F)c1nc(SCc2ccc(Cl)cc2Cl)n[nH]1 | 6.21 µM |
| O=C(O)c1ccc(N/N=C/C2=C(N3CCOCC3)C(=C\c3ccccc3)/CC2)cc1 | 6.18 µM |
| CCc1cc(-c2[nH]ncc2-c2ccc([N+](=O)[O-])cc2)c(O)cc1OC | 6.19 µM |
| O=C(Nc1ccccc1N1CCOCC1)c1cc2c(s1)CCCCC2 | 6.04 µM |
| Cc1ccc(C)c(NS(=O)(=O)c2cc(C(=O)N3CCc4ccccc4C3)ccc2Cl)c1 | 6.77 µM |
| O=C1OC(c2ccccc2)=NC12CC2c1ccc(Cl)cc1 (stereo not given) | 2.2 µM |
| Clc1cccc(CON/C=N/c2ncnc3sccc23)c1 | 3.74 µM |
| CCCC(=O)NC(c1ccccc1OC)c1ccc2cccnc2c1O (stereo not given) | 1.7 µM |
| O=C1c2ccccc2NC(c2ccc(-c3cccc([N+](=O)[O-])c3)o2)N1O (stereo not given) | 4.69 µM |
| COc1ccc(S(=O)(=O)N(C(=O)c2ccncc2)c2ccc(OC(=O)c3ccncc3)cc2)cc1 | 4.46 µM |
| Cc1[nH]n(-c2ccccc2)c(=O)c1/C=N/Nc1nncc(-c2ccccc2)n1 | 7.15 µM |
| Cn1nc(C(F)(F)F)c(C#N)c1N1CCN(c2ccc(F)cc2)CC1 | 7.37 µM |
| Cc1ccc2c(c1C)-c1c(ccc(C)c1C)C(=O)C2=O | 1.48 µM |

| SMILES | AC50 |
| --- | --- |
| O=c1c(O)c(-c2ccccc2)oc2ccccc12 | 5.37 µM |
| O=[N+]([O-])c1cccc(-c2cc(-c3cc(Br)ccc3O)[nH]n2)c1 | 5.44 µM |
| O=C1/C(=C/c2cccs2)SC(=S)N1NS(=O)(=O)c1ccccc1 | 3.9 µM |
| COc1ccc(C2=CC(=O)C[C@H](c3ccc4c(c3)OCO4)C2)cc1 | 6.93 µM |
| COc1cc(/C=C2\SC(=S)N(NS(=O)(=O)c3ccc(C)cc3)C2=O)ccc1O | 7.05 µM |
| Oc1cccc2ccc(Nc3ccccn3)nc12 | 4.98 µM |
| COc1cccc(C(=O)Nc2sc(C(C)C)cc2C(N)=O)c1OC | 5.46 µM |
| O=S(=O)(CCSc1ccccn1)c1nc2ccccc2s1 | 7.49 µM |
| Cc1cc(F)ccc1S(=O)(=O)N(C(=O)c1ccncc1)c1ccc(OC(=O)c2ccncc2)cc1 | 6.3 µM |
| O=C(CSc1ccc(-c2ccccn2)nn1)NC1CCCCC1 | 4.21 µM |
| CC(=O)Nc1cccc(NC(=O)CSc2ccc(-c3ccccn3)nn2)c1 | 3.64 µM |
| Cc1ccc(CNC(=O)CSc2ccc(-c3ccccn3)nn2)cc1 | 4.21 µM |
| Cc1ccc2oc(-c3ccccc3)c(C(=O)O)c(=O)c2c1 | 5.94 µM |
| Cc1nn2c(-c3ccncc3)nnc2c2ccccc12 | 7.28 µM |
| O=C(CSc1ccc(-c2ccccn2)nn1)NC1CCCC1 | 11.1 µM |
| Cc1ccc(C2(c3ccc(C)cc3)CC2C(=O)Nc2ccc([N+](=O)[O-])cc2O)cc1 (stereo not given) | 5.44 µM |
| Cc1onc(-c2c(Cl)cccc2Cl)c1C(=O)N/N=C(\N)COc1ccc(Cl)cc1 | 3.02 µM |
| O=C(Nc1ccc(C2=NCCN2)cc1)c1ccc(C(=O)Nc2ccc(C3=NCCN3)cc2)c(Cl)c1 | 4.17 µM |
| COc1ccc(C(=O)c2c(C(F)(F)F)oc3c2C(=O)c2ccccc2C3=O)cc1OC | 6.24 µM |
| N#Cc1c(-c2ccc(Cl)cc2)n(O)c2ccccc12 | 2.67 µM |
| COc1cc([N+](=O)[O-])cc(/C=N/NC(=O)c2cncc(Br)c2)c1O | 4.36 µM |
| C[n+]1c2cc(N)ccc2cc2ccc(N)cc21 | 1.82 µM and 1 µM |
| Cc1ccccc1Oc1nc(-c2ccccn2)nc2ccccc12 | 2.29 µM |

| SMILES | AC50 |
| --- | --- |
| CC1(C)C=Cc2c(ccc3c2OC[C@@H](c2ccc(O)cc2O)C3)O1 | 5.69 µM |
| Cc1cccc(C)c1NS(=O)(=O)c1ccc(-c2cnc(C3CC3)o2)cc1 | 6.06 µM |
| COc1cccc(/C=N/Nc2ncnc(Cl)c2N)c1O | 4.52 µM |
| O=C(O)c1ccccc1NS(=O)(=O)c1cccc(-n2sc3ccccc3c2=O)c1 | 4.78 µM |
| COc1cccc(/C=N/Nc2ncc(C(F)(F)F)cc2Cl)c1O | 1.49 µM |
| Cc1cc(C)c(OCC(=O)Nc2nc(-c3ccccn3)cs2)c(C)c1 | 4.34 µM |
| CC(=O)Oc1ccc(OC(C)=O)c(SCCCCCCl)c1 | 7.6 µM |
| CCOC(=O)c1ccc(NC(=O)CC2C(=O)OCCN2CC)cc1 (stereo not given) | 4.66 µM |
| CN(c1ccccc1)c1nc(N2CCCC2)nc(-n2ccnc2)n1 | 1.04 µM |
| CCCCC(=O)NC(=S)NNC(=O)CCc1ccccc1 | 5.21 µM |
| COc1cccc2c1C(=O)c1c(O)c3c(c(O)c1C2=O)C[C@@](O)(C(=O)CO)C[C@@H]3O[C@H]1C[C@H](N)[C@H](O)[C@H](C)O1 | 6.48 µM |
| O=S(=O)(Nc1nc2ccccc2nc1N1CCN(c2ccccn2)CC1)c1ccc(Cl)cc1 | 1.79 µM |
| CC1CCc2sc(-c3n[nH]c(=S)o3)cc2C1 (stereo not given) | 5.69 µM |
| CCC1=NN(C(=O)c2cccc(Br)c2)C(O)(c2ccc(Br)cc2)C1 (stereo not given) | 5.92 µM |
| CC1Oc2ccccc2C=C1/C=N/Nc1ccc(C(=O)O)cc1 (stereo not given) | 10.1 µM |
| FC(F)(F)c1cccc(N2CCc3cn[nH]c32)c1 | 0.446 µM |
| Cc1nn(CCC#N)c(N)c1C1(O)C(=O)Nc2c(Cl)cc(Cl)cc21 (stereo not given) | 7.66 µM |
| COc1ccc(C(=O)On2c(-c3ccc(Br)cc3)nc3ccccc3c2=O)cc1 | 4.13 µM |
| [O-][n+]1cccc2c(Br)cc(Br)c(O)c21 | 2.69 µM |
| O=P(Nc1cccnc1)(Oc1ccccc1Cl)Oc1ccccc1Cl | 6.5 µM |
| O=S(=O)(c1ccc(Cl)cc1)N1CCC2(CC1)OCCN2S(=O)(=O)c1cccs1 | 4.77 µM |
| CC(C)(C)C(O)C(Cc1ccccc1Cl)n1cncn1 (stereo not given) | 0.215 µM |
| COc1cccc(NC=C2C(=O)OC3(CCCCC3)OC2=O)c1 | 9.91 µM |
